Two compounds from patent US5688767A, “Treatment of endotoxin-associated disorders with cationic peptides” (priority 1996, dated 1997) can be followed below.

The test system of experiment [1] is LPS-induced TNF in RAW 264.7 macrophage cells. As to the kind of experiment: Inhibition of LPS-mediated TNF induction in RAW 264.7 macrophages (L929 cytotoxicity readout). The settings on record: for Unit of TNF induced / Unit of TNF induced (% of control): 100 ng purified E. coli 0111:B4 LPS, 20 μg of peptide or polymyxin B; for block of induction of TNF: 20 μg/ml, E. coli 0111:B4 and E. coli Bort LPS; for block of LPS induction of TNF: added up to 60 minutes after LPS. Type of experiment: cell-based, murine. On the procedure:
The effect of CEME and CEMA peptides on LPS-induced TNF in macrophages was examined. RAW 264.7 macrophage cells were grown by seeding 10^6 cells into a 162 cm^2 cell culture flask and incubated at 37° C., 5% CO2 for 1 week. RAW cell media (Dulbecco's Modified Eagle Medium with Hepes buffer 450 ml; 2.4 mM L-glutamine 3 ml (400 mM); Pen/Strep 3 ml (10^4 U/ml of Pen, 1 mg/ml strep); and 10% heat inactivated fetal bovine serum (FBS) 50 ml) was then completely removed from flasks. 10 mls of cell dissociation solution (Sigma) was added to each flask and incubated at 37° C. for 10 minutes. Cells were removed from flasks, diluted in RAW cell media and centrifuged for 6 minutes. The cell pellet was resuspended in 5 ml of media/flask used. […] cell suspension was removed and added to 400 μl of trypan blue and cells were counted using a hemocytometer. The cell suspension was diluted to 1×10^6cells/ml and 1 ml of suspension was added per well of a 24 well plate. The 24 well plates were incubated at 37° C., 5% CO2 overnight for use in the assay.
After an overnight incubation, the media was aspirated from all the wells. 100 μl of Lipopolysaccharide (LPS) was added at 100 ng/100 μl. CEME or CEMA was added at the desired concentration/100 μl to specified wells. […] The plates were then incubated for six hours at 37° C., 5% CO2. The supernatant was then removed from the wells and stored overnight at 4° C. For those wells in which whole bacteria were added directly to the wells, the supernatant was centrifuged in 0.2 μm filter eppendorf tubes for 5 minutes.
The supernatants were then used in cell cytotoxic L929 assay. The samples were transferred to 96 well plates. 50 μl of TNF media was added to all the wells in all the plates except to those wells in the first row. 10 μl of murine TNF standard (20 ng/ml) and 90 μl of TNF media was added in duplicate to the plate and diluted 1:2 down the plate to the second to last row. Test samples (75 μl), comprising of the supernatants from the RAW cell assays, were added to separate rows in duplicate and diluted 1:3 to the second to last rows.
TNF-sensitive L929 mouse fibroblast cells were grown by seeding 10^6 cells into a 162 cm^2 cell culture flask and left to grow for 1 week. L929 cells were removed from the flask with 10 mls of trypsin-EDTA/flask and incubated 3-5 minutes. Cell suspension was diluted and centrifuged for 6 minutes. The pellet was resuspended in 5 mls of fresh L929 media/flask and counted (same as RAW cells). Cell suspension was diluted to 10^6 cells/ml. 100 μl was used to inoculate each well of the 96 well plates with the supernatants. (L929 Growth Media was the same as RAW cell media except instead of FBS, 50 mls of 10% heat inactivated horse serum was utilized; TNF Assay Media was the same as RAW cell media except 4 μg/ml Actinomycin D was added.)
The plates were incubated at 37° C. at 5% CO2 for 2 days. The media was then aspirated and replaced with 100 μl of the dye MTT (0.5 mg/ml) in modified Eagle Medium without phenol red. The plates were then incubated at 37° C. at 5% CO2 for 3 hours. The dye was then removed and replaced with 100 μl of absolute ethanol. The plates were left at room temperature for 10-15 minutes to dissolve the formazan dye crystals.
The plates were read at 570 nm in a ELISA plate reader with 690 nm reference filter. One unit of TNF activity is defined as the amount required to kill 50% of the L929 cells. The TNF level in Units per ml therefore was the reciprocal of the dilution which led to a 50% killing of L929 cells. […]
The murine cell line RAW 264.7 was obtained from ATCC, (Rockville, Md.), and maintained and passaged as described previously (Kelly, et al., supra). TNF induction experiments with LPS were performed as described by Kelly, et al. (supra) Briefly, Dulbecco's modified Eagle medium was aspirated from RAW 264.7 cell grown overnight in 24 well tissue culture plates after seeding with 10^6 cell per ml per well and replaced with fresh medium. […]

For experiment [2], the system named is P. aeruginosa H309 or E. cloacae 218R1. The format is cell-based, Pseudomonas aeruginosa; Enterobacter cloacae. Conditions: 10 μM NPN. An excerpt: The second assay determined membrane permeability by the ability of 1-N-phenylnaphthylamine(NPN), a small fluorescent probe, to insert itself into the membrane. Normally, very little NPN can penetrate the outer membrane, but in the presence of a membrane permeabilizer it can insert into the hydrophobic membrane resulting in an increase in fluorescence (FIGS. 7 and 8). This N-phenylnaphthylamine uptake assay was previously described by Loh, et al., Antimicrobial Agents and Chemo., 26:546, 1984. Cells were prepared exactly the same as for the lysozyme lysis assay. 1-N-phenylnaphthylamine(NPN) was dissolved in acetone at a concentration of 500 μM. NPN fluorescence was measured in a Perkin-Elmer 650-10S fluorescent spectrophotometer using excitation and emission wavelengths set to 350 nm and 420 nm respectively, with slit widths of 5 nm. The assay was standardized by adding 20 μl of NPN (final concentration of 10 μM) and 10 μl of 0.64 mg/ml of polymyxin B (final concentration of 6.4 μg/ml) into 1 ml of cells, and adjusting the resulting fluorescence to read 90% deflection (90 arbitrary units). Various compounds were tested by adding 10 μl of different concentrations to a cuvette containing 1 ml of cells and 10 μM NPN. Permeabilizing activity was designated as the total fluorescence minus the fluorescence due to NPN alone. Following the fluorescence measurement, the OD600 of the cells was taken to ensure no significant cell lysis had occurred.

Experiment [3] concerns P. AERUGINOSA H309. The experiment is described as follows: microbe, parasite or virus in culture. The format is cell-based, Pseudomonas aeruginosa. On the procedure: Briefly, cells were grown overnight at 37° C. in LB-S (Luria broth without any salt supplement) and diluted one in 10,000 in the same medium to give concentrations of about 10^4 to 10^5 CFU/ml. The broth dilutions were set up in a 96 well microtiter plate by putting 200 μl of LB-S containing the initial concentration of antibiotic or compound in column 1 and 100 μl of the same medium in columns 2-12. The compounds were diluted by taking 100 μl of broth from column 1 and mixing it with column 2, resulting in a one in two dilution. This was continued to column 10. Finally, 10 μl of bacteria were pipetted into columns 1-11, and the plates incubated overnight at 37° C. The next day the plates were scored for growth in the wells, and the MIC determined.

≈ marks a conversion by molar mass, not a printed value.

For the compound `CC[C@H](C)[C@H](NC(=O)CNC(=O)[C@@H](NC(=O)[C@H](CCCCN)NC(=O)[C@H](CCCCN)NC(=O)[C@H](Cc1ccccc1)NC(=O)[C@H](CC(C)C)NC(=O)[C@H](CCCCN)NC(=O)[C@H](Cc1c[nH]c2ccccc12)NC(=O)[C@@H](N)CCCCN)[C@@H](C)CC)C(=O)NCC(=O)N[C@@H](C)C(=O)N[C@H](C(=O)N[C@@H](CC(C)C)C(=O)N[C@@H](CCCCN)C(=O)N[C@H](C(=O)N[C@@H](CC(C)C)C(=O)N[C@H](C(=O)N[C@H](C(=O)NCC(=O)N[C@@H](CC(C)C)C(=O)N1CCC[C@H]1C(=O)N[C@@H](C)C(=O)N[C@@H](CC(C)C)C(=O)N[C@@H](CCCCN)C(=O)N[C@@H](CC(C)C)C(=O)N[C@H](C(=O)N[C@@H](CCCCN)C(=O)O)[C@@H](C)O)[C@@H](C)O)[C@@H](C)O)C(C)C)C(C)C` [CEMA], the “concentration of peptide that efficiently reduces LPS-induced TNF” value in experiment [1] (100 ng of E. coli 0111:B4 or E. coli Bort LPS, 6 hour) was no more than 5 µg/mL. In experiment [1], the “Unit of TNF induced” value turned out to be 566 ± 69 units/ml, the “Unit of TNF induced (% of control)” value stood at 5.8%, the “block of induction of TNF” value was “approximately 100%” and the “block of LPS induction of TNF” value is given as 99%. Besides, in experiment [1] (2 μg/ml of peptide, E. coli 0111:B4 LPS 100 ng/ml), the “reduction of TNF induction” value is on record as “more than 50%”. Moreover, in experiment [1] (20-50 μg/ml of peptides, E. coli 0111:B4 LPS 100 ng/ml), the “blockage of TNF induction, in words” value is listed as “almost complete blockage”. In addition, the “TNF produced by peptide alone” value in experiment [1] (CEMA (20 μg) alone, no LPS) worked out at 50 ± 3 units/ml. In addition, in experiment [2], the “activity in opening up the membrane to NPN” value is on record as “equally active”. In experiment [3] (+5 mM Mg^++), this compound returned an MIC of 22.4 µg/mL (≈ 7.31 µM). The same compound had an MIC in experiment [3] (+80 mM Na^+) of 5.6 µg/mL (≈ 1.83 µM). Further, the MIC in experiment [3] (No addition) was 2.8 µg/mL (≈ 0.913 µM).
For polymyxin B, in experiment [1], the “Unit of TNF induced” value came to 573 ± 4 units/ml, the “Unit of TNF induced (% of control)” value is on record as 5.8%, the “block of induction of TNF” value was “approximately 100%” and the “block of LPS induction of TNF” value stood at 81%. Besides, the “activity in opening up the membrane to NPN” value in experiment [2] is on record as “equally active”. The MIC in experiment [3] (+5 mM Mg^++) amounted to 1 µg/mL. Moreover, the MIC in experiment [3] (+80 mM Na^+) stood at 0.5 µg/mL. In experiment [3] (No addition), the MIC was found to be 0.5 µg/mL.
